{"source": "patent US20230149600A1", "about": "“COLLAGEN-BASED DEVICE HAVING ANTIFUNGAL PROPERTIES” (AROA BIOSURGERY LIMITED, priority 2016, published 2023)", "origin": "cited, not measured here", "key": {"Candida albicans": {"tested_on": "Candida albicans", "conditions": "5% (50 mg/mL) doxycycline solution"}, "C. albicans biofilms": {"tested_on": "C. albicans biofilms", "conditions": "doxycycline concentrations >0.512 mg/mL; not correlated with fungicidal efficacy"}, "[1]": {"tested_on": "fungal spores of the genera Aspergillus, Penicillium and Curvularia", "conditions": "called \"moderate\" activity"}, "C. albicans": {"tested_on": "C. albicans", "conditions": "20 strains of C. albicans"}}, "data": [{"substance": "Doxycycline", "values": [{"measurement": "antifungal effect relative to other solutions", "setting": "Candida albicans", "value": "more active than a 17% EDTA solution but less active than a 2.5% NaOCl solution or a 0.2% chlorhexidine gluconate solution"}, {"measurement": "reduction in metabolic activity of C. albicans biofilms", "setting": "C. albicans biofilms", "value": "≥ 80", "unit": "%"}, {"measurement": "inhibition of fungal spore germination", "setting": "[1]", "value": "50-70%"}, {"measurement": "MIC range", "setting": "C. albicans", "value": "640 to 1280", "unit": "µg/mL"}]}]}
